Laboratory results: patent US11066414B2, “Cot modulators and methods of use thereof” (Gilead Sciences, Inc., priority 2015, dated 2021)
Where two headings read alike, the source gives them in different places.

Columns and labels:
[1] = test system: TNFα; assay: Cot Monocyte TNFα Cell Based Assay
[2] = target: Human Cot (Homo sapiens (Human), UniProt P41279); assay: High Throughput Cot Biochemical Assay
[3] = read-out: EC50 TNF, LPS-stimulated human monocytes, TNFα
[4] = read-out: IC50 HTRF, Cot HTRF (TR-FRET) biochemical assay
[5] = Homo sapiens, Monocyte, read-out: EC50 TNF, LPS-stimulated human monocytes, TNFα
[6] = IC50 HTRF, Cot HTRF (TR-FRET) biochemical assay
[7] = Homo sapiens, Monocyte, read-out: EC50 TNF, LPS-stimulated human monocytes, TNFα TR-FRET
[8] = IC50 HTRF, Cot HTRF (TR-FRET KinEASE) biochemical assay, 400 μM ATP

Chain of Human Cot (P41279 30-397): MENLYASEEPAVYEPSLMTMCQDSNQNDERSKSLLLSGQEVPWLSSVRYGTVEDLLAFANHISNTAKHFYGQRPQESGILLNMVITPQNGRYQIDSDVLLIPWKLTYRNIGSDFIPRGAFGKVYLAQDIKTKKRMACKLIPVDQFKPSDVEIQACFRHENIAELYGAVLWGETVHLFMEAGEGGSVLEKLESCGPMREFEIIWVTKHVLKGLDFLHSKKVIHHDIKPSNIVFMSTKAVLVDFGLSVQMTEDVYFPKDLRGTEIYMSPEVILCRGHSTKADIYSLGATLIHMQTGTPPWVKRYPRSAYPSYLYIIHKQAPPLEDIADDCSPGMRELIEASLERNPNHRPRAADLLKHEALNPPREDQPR

Row | SMILES | EC50 [1, 5] [nM] | IC50 [2, 6] [nM] | further results
1 | CC[C@@H](Nc1c(C#N)cnc2c(Cl)cc(N[C@@H](c3cccnc3)c3cn([C@H]4[C@@H]5CN(C6COC6)C[C@@H]54)nn3)cc12)c1ccccc1 [Example 174, 8-chloro-6-(((S)-(1-((1 R,5S,6s)-3-(oxetan-3-yl)-3-azabicyclo[3.1,0]hexan-6-yl)-1H-1,2,3-triazol-4-yl)(pyridin-3-yl)methyl)amino)-4-(((R)-1-phenylpropyl)amino)quinoline-3-carbonitrile] | – | – | EC50 [1, 3]: 54 nM; IC50 [2, 4]: 2 nM
2 | CC(C)n1cc([C@@H](Nc2cc(Cl)c3ncc(C#N)c(Nc4ccc(F)c(Cl)c4)c3c2)c2cscn2)nn1 [Example 357, (S)-8-chloro-4-((3-chloro-4-fluorophenyl)amino)-6-(((1-isopropyl-1H-1,2,3-triazol-4-yl)(thiazol-4-yl)methyl)amino)quinoline-3-carbonitrile] | 235 | 5 | –
3 | N#Cc1cnc2c(Cl)cc(N[C@@H](c3cncc(Cl)c3)c3c[nH]nn3)cc2c1Nc1cnc(F)c(F)c1 [Example 152, (S)-8-chloro-6-(((5-chloropyridin-3-yl)(1H-1,2,3-triazol-4-yl)methyl)amino)-4-((5,6-difluoropyridin-3-yl)amino)quinoline-3-carbonitrile] | 904 | 10 | –
4 | CC[C@@H](Nc1c(C#N)cnc2c(Cl)cc(N[C@@H](c3cccnc3)c3cn(C(C)(C)C)nn3)cc12)c1ccccc1 [Example 192, 6-(((S)-(1-(tert-butyl)-1H-1,2,3-triazol-4-yl)(pyridin-3-yl)methyl)amino)-8-chloro-4-(((R)-1-phenylpropyl)arnino)quinoline-3-carbonitrile] | – | – | EC50 [1, 3]: 186 nM; IC50 [2, 4]: 3 nM
5 | Cc1nc(F)ccc1[C@H](Nc1cc(C#N)c2ncc(C#N)c(NCC(C)(C)C)c2c1)c1cn(C2CC23CC3)nn1 (stereo partly drawn) [Example 872, 6-(((1S)-(6-fluoro-2-methylpyridin-3-yl)(1-(spiro[2.2]pentan-1-yl)-1H-1,2,3-triazol-4-yl)methyl)amino)-4-(neopentylamino)quinoline-3,8-dicarbonitrile] | – | – | EC50 [1, 7]: 15 nM; IC50 [2, 8]: 1 nM
6 | CC(C)(C)CNc1c(C#N)cnc2c(Cl)cc(N[C@H](c3cn(C4(C#N)CC4)nn3)c3cccc4ncsc34)cc12 [Example 415, (S)-6-((benzo[d]thiazol-7-yl(1-(1-cyanocyclopropyl)-1H-1,2,3-triazol-4-yl)methyl)amino)-8-chloro-4-(neopentylamino)quinoline-3-carbonitrile] | 67 | 3 | –
7 | CC(C)(C)ONc1c(C#N)cnc2c(I)cc(N[C@H](c3cn(C4CC4)nn3)c3cccc4ncsc34)cc12 [Example 457, (S)-6-((benzo[d]thiazol-7-yl(1-cyclopropyl-1H-1,2,3-triazol-4-yl)methyl)amino)-4-(tert-butoxyamino)-8-iodoquinoline-3-carbonitrile] | 1000 | 315 | –
8 | CCc1nc(F)ccc1[C@H](Nc1cc(Cl)c2ncc(C#N)c(NCC(C)(C)C)c2c1)c1cn(C2(C(F)F)CC2)nn1 [Example 592, (S)-8-chloro-6-(((1-(1-(difluoromethyl)cyclo-propyl)-1H-1,2,3-triazol-4-yl)(2-ethyl-6-fluoropyridin-3-yl)methyl)amino)-4-(neopentylamino)quinoline-3-carbonitrile] | 78 | 5 | –
9 | COC[C@H](C)n1cc([C@@H](Nc2cc(Cl)c3ncc(C#N)c(NCC(C)(C)C)c3c2)c2cccc3c(=O)n(C)ccc23)nn1 [Example 802, 8-chloro-6-(((S)-(1-((S)-1-methoxypropan-2-yl)-1H-1,2,3-triazol-4-yl)(2-methyl-1-oxo-1,2-dihydroisoquinolin-5-yl)methyl)amino)-4-(neopentylamino)quinoline-3-carbonitrile] | – | – | EC50 [1, 7]: 36 nM; IC50 [2, 8]: 4 nM

Second part, led by results:

Row | EC50 [1, 5] [nM] | IC50 [2, 6] [nM] | SMILES | further results
10 | 418 | 10 | Cc1nc(F)ccc1[C@H](Nc1cc(Cl)c2ncc(C#N)c(NCC(C)(C)CC#N)c2c1)c1cn(C2(C(F)F)CC2)nn1 [Example 512, (S)-8-chloro-4-((3-cyano-2,2-dimethyl-propyl)amino)-6-(((1-(1-(difluoromethyl)-cyclopropyl)-1H-1,2,3-triazol-4-yl)(6-fluoro-2-methylpyridin-3-yl)methyl)amino)quinoline-3-carbonitrile] | –
11 | 267 | 28 | Cc1nc(F)ccc1[C@H](Nc1cc(Cl)c2ncc(C#N)c(NCC(C)(C)C#N)c2c1)c1cn(C2(C(F)(F)F)CC2)nn1 [Example 633, (S)-8-chloro-4-((2-cyano-2-methylpropyl)amino)-6-(((6-fluoro-2-methylpyridin-3-yl)(1-(1-(trifluoromethyl)cyclopropyl)-1H-1,2,3-triazol-4-yl)methyl)amino)quinoline-3-carbonitrile] | –
12 | 718 | 41 | CC(C)(C)N1CCC(n2cc([C@@H](Nc3cc(Cl)c4ncc(C#N)c(Nc5ccc(F)c(Cl)c5)c4c3)c3csc4ccc(Cl)cc34)nn2)CC1 [Example 349, (S)-6-(((1-(1-(tert-butyl)piperidin-4-yl)-1H-1,2,3-triazol-4-yl)(5-chlorobenzo[b]-thiophen-3-yl)methyl)amino)-8-chloro-4-((3-chloro-4-fluorophenyl)amino)quinoline-3-carbonitrile] | –
13 | 32 | 2 | CC(C)(C)CNc1c(C#N)cnc2c(C#N)cc(N[C@H](c3cn(C4(C)CC4)nn3)c3cccc4ncccc34)cc12 [Example 578, (S)-6-(((1-(1-methylcyclopropyl)-1H-1,2,3-triazol-4-yl)(quinolin-5-yl)methyl)amino)-4-(neopentylamino)quinoline-3,8-dicarbonitrile] | –
14 | 65 | 2 | CC(C)(C)CNc1c(C#N)cnc2c(Cl)cc(N[C@H](c3cn(C45CC(C4)C5)nn3)c3cccc4c(=O)[nH]ccc34)cc12 [Example 787, (S)-6-(((1-(bicyclo[1.1.1]pentan-1-yl)-1H-1,2,3-triazol-4-yl)(1-oxo-1,2-dihydroisoquinolin-5-yl)methyl)amino)-8-chloro-4-(neopentylamino)quinoline-3-carbonitrile] | –
15 | 46 | 2 | CC(C)(C)CNc1c(C#N)cnc2c(C#N)cc(N[C@H](c3cn(C4(C(F)(F)F)CC4)nn3)c3cccc4cnccc34)cc12 [Example 470, (S)-6-((isoquinolin-5-yl(1-(1-(trifluoromethyl)cyclopropyl)-1H-1,2,3-triazol-4-yl)methyl)amino)-4-(neopentylamino)quinoline-3,8-dicarbonitrile] | –
16 | 229 | 20 | Cc1nc(F)ccc1[C@H](Nc1cc(Cl)c2ncc(C#N)c(N[C@@H](c3ccccc3)C3CC3)c2c1)c1cn(C2(C(F)(F)F)CC2)nn1 [Example 611, 8-chloro-4-(((R)-cyclopropyl(phenyl)methyl)-amino)-6-(((S)-(6-fluoro-2-methylpyridin-3-yl)(1-(1-(trifluoromethyl)cyclopropyl)-1H-1,2,3-triazol-4-yl)methyl)amino)quinoline-3-carbonitrile] | –
17 | 82 | 4 | N#Cc1cnc2c(Cl)cc(N[C@@H](c3cccnc3)c3cn(CCN4CCCCC4)nn3)cc2c1Nc1ccc(F)c(Cl)c1 [Example 334, (S)-8-chloro-4-((3-chloro-4-fluorophenyl)amino)-6-(((1-(2-(piperidin-1-yl)ethyl)-1H-1,2,3-triazol-4-yl)(pyridin-3-yl)methyl)-amino)quinoline-3-carbonitrile] | –
